Literature values as cited in patent publication US20110082407A1, “Combination Therapies for the Treatment of Obesity” (priority 2009, published 2011).

Legend:
[1] = in vivo
[2] = literature studies

## CCN[C@@H](C)Cc1cccc(C(F)(F)F)c1 [dexfenfluramine]
[1]
  clinically significant side effect limiting clinical use: suspected heart valvulopathy
[2]
  weight loss of body weight for drug compared with placebo: about 5%

## CCNC(C)Cc1cccc(C(F)(F)F)c1 (centres unmarked) [fenfluramine]
[1]
  clinically significant side effect limiting clinical use: caused heart-valve complications

## CCCCCCCCCCC[C@@H](C[C@@H]1OC(=O)[C@H]1CCCCCC)OC(=O)[C@H](CC(C)C)NC=O [orlistat]
[1]
  clinically significant side effect limiting clinical use: GI side effects
[2]
  weight loss of body weight for drug compared with placebo: about 5%

## CC(C)CC(N(C)C)C1(c2ccc(Cl)cc2)CCC1 (centres unmarked) [sibutramine]
[1]
  clinically significant side effect limiting clinical use: can cause hypertension
[2]
  weight loss of body weight for drug compared with placebo: about 5%

## triacetyl-beta-cyclodextrin
other
  solubility in water: insoluble
